Test results reported in publication PMC11277489, “Novel Piperazine Derivatives of Vindoline as Anticancer Agents” (International Journal of Molecular Sciences, 2024).

System: SK-MEL-5
Experiment: NCI60 one-dose screen (10 μM), Melanoma
Type: cell-based, human
Details: Homo sapiens, SK-MEL-5, read-out: Growth percent rate

Q: With CCC12C=CCN3CCC4(c5cc(NC(=O)CN6CCN(Cc7ccc(C(F)(F)F)cc7)CC6)c(OC)cc5N(C)C4C(O)(C(=O)OC)C1OC(C)=O)C32 (stereo not shown) [Compound 18] as the compound, how does the activity at 10 µM read?
A: 21.2%

Same assay, conditions: Homo sapiens; 10 μM; SK-MEL-5, Melanoma; read-out: Growth percent rate

Q: Which activity at 10 µM does the source give for CCC12C=CCN3CCC4(c5cc(NC(=O)CN6CCN(C(=O)c7ccco7)CC6)c(OC)cc5N(C)C4C(O)(C(=O)OC)C1OC(C)=O)C32 (stereo not shown) [Compound 21] here?
A: 105%

System: SR
Experiment: NCI60 one-dose screen (10 μM), Leukemia
Type: cell-based
Details: Homo sapiens, 10 μM, Leukemia, read-out: Growth percent rate

Q: With CCC12C=CCN3CCC4(c5cc(NC(=O)CN6CCN(C(=O)c7ccco7)CC6)c(OC)cc5N(C)C4C(O)(C(=O)OC)C1OC(C)=O)C32 (stereo not shown) [Compound 21] as the compound, how does the activity at 10 µM read?
A: 97.2%

Same assay, conditions: Homo sapiens, read-out: Growth percent rate

Q: Which activity at 10 µM does the source give for CCC12C=CCN3CCC4(c5cc(NC(=O)CN6CCN(Cc7ccc(C(F)(F)F)cc7)CC6)c(OC)cc5N(C)C4C(O)(C(=O)OC)C1OC(C)=O)C32 (stereo not shown) [Compound 18] here?
A: 48.2%

System: M14
Experiment: NCI60 one-dose screen (10 μM), Melanoma
Type: cell-based
Details: Homo sapiens, M14, read-out: Growth percent rate

Q: How did the activity at 10 µM turn out when CCC12C=CCN3CCC4(c5cc(NC(=O)CN6CCN(Cc7ccc(C(F)(F)F)cc7)CC6)c(OC)cc5N(C)C4C(O)(C(=O)OC)C1OC(C)=O)C32 (stereo not shown) [Compound 18] was run?
A: 67.2%

Same assay, conditions: Homo sapiens; 10 μM; M14, Melanoma; read-out: Growth percent rate

Q: For CCC12C=CCN3CCC4(c5cc(NC(=O)CN6CCN(C(=O)c7ccco7)CC6)c(OC)cc5N(C)C4C(O)(C(=O)OC)C1OC(C)=O)C32 (stereo not shown) [Compound 21], which activity at 10 µM is on record?
A: 110%

System: NCI-H226
Experiment: NCI60 one-dose screen (10 μM), Non-small Cell Lung Cancer
Type: cell-based
Details: Homo sapiens, NCI-H226, read-out: Growth percent rate

Q: CCC12C=CCN3CCC4(c5cc(NC(=O)CN6CCN(Cc7ccc(C(F)(F)F)cc7)CC6)c(OC)cc5N(C)C4C(O)(C(=O)OC)C1OC(C)=O)C32 (stereo not shown) [Compound 18] was tested. Which activity at 10 µM did it give?
A: 67.7%

Same assay, conditions: Homo sapiens; 10 μM; NCI-H226, Non-small Cell Lung Cancer; read-out: Growth percent rate

Q: How did the activity at 10 µM turn out when CCC12C=CCN3CCC4(c5cc(NC(=O)CN6CCN(C(=O)c7ccco7)CC6)c(OC)cc5N(C)C4C(O)(C(=O)OC)C1OC(C)=O)C32 (stereo not shown) [Compound 21] was run?
A: 111%

System: SK-OV-3
Experiment: NCI60 one-dose screen (10 μM), Ovarian Cancer
Type: cell-based
Details: Homo sapiens, SK-OV-3, read-out: Growth percent rate

Q: For CCC12C=CCN3CCC4(c5cc(NC(=O)CN6CCN(Cc7ccc(C(F)(F)F)cc7)CC6)c(OC)cc5N(C)C4C(O)(C(=O)OC)C1OC(C)=O)C32 (stereo not shown) [Compound 18], which activity at 10 µM is on record?
A: 87%

Same assay, conditions: Homo sapiens; 10 μM; SK-OV-3, Ovarian Cancer; read-out: Growth percent rate

Q: For CCC12C=CCN3CCC4(c5cc(NC(=O)CN6CCN(C(=O)c7ccco7)CC6)c(OC)cc5N(C)C4C(O)(C(=O)OC)C1OC(C)=O)C32 (stereo not shown) [Compound 21], which activity at 10 µM is on record?
A: 113%

System: MDA-MB-468
Experiment: NCI60 one-dose screen (10 μM), Breast Cancer
Type: cell-based
Details: Homo sapiens, MDA-MB-468, read-out: Growth percent rate

Q: Which activity at 10 µM does the source give for CCC12C=CCN3CCC4(c5cc(NC(=O)CN6CCN(Cc7ccc(C(F)(F)F)cc7)CC6)c(OC)cc5N(C)C4C(O)(C(=O)OC)C1OC(C)=O)C32 (stereo not shown) [Compound 18] here?
A: 39.8%

Same assay, conditions: Homo sapiens; 10 μM; MDA-MB-468, Breast Cancer; read-out: Growth percent rate

Q: How did the activity at 10 µM turn out when CCC12C=CCN3CCC4(c5cc(NC(=O)CN6CCN(C(=O)c7ccco7)CC6)c(OC)cc5N(C)C4C(O)(C(=O)OC)C1OC(C)=O)C32 (stereo not shown) [Compound 21] was run?
A: 120%

System: MDA-MB-231/ATCC
Experiment: NCI60 one-dose screen (10 μM), Breast Cancer
Type: cell-based, human
Details: Homo sapiens, MDA-MB-231, read-out: Growth percent rate

Q: For CCC12C=CCN3CCC4(c5cc(NC(=O)CN6CCN(Cc7ccc(C(F)(F)F)cc7)CC6)c(OC)cc5N(C)C4C(O)(C(=O)OC)C1OC(C)=O)C32 (stereo not shown) [Compound 18], which activity at 10 µM is on record?
A: 43.7%

Same assay, conditions: Homo sapiens; 10 μM; MDA-MB-231/ATCC, Breast Cancer; read-out: Growth percent rate

Q: With CCC12C=CCN3CCC4(c5cc(NC(=O)CN6CCN(C(=O)c7ccco7)CC6)c(OC)cc5N(C)C4C(O)(C(=O)OC)C1OC(C)=O)C32 (stereo not shown) [Compound 21] as the compound, how does the activity at 10 µM read?
A: 98.8%

System: OVCAR-5
Experiment: NCI60 one-dose screen (10 μM), Ovarian Cancer
Type: cell-based
Details: Homo sapiens, OVCAR-5, read-out: Growth percent rate

Q: Which activity at 10 µM does the source give for CCC12C=CCN3CCC4(c5cc(NC(=O)CN6CCN(Cc7ccc(C(F)(F)F)cc7)CC6)c(OC)cc5N(C)C4C(O)(C(=O)OC)C1OC(C)=O)C32 (stereo not shown) [Compound 18] here?
A: 108%

Same assay, conditions: Homo sapiens; 10 μM; OVCAR-5, Ovarian Cancer; read-out: Growth percent rate

Q: Which activity at 10 µM does the source give for CCC12C=CCN3CCC4(c5cc(NC(=O)CN6CCN(C(=O)c7ccco7)CC6)c(OC)cc5N(C)C4C(O)(C(=O)OC)C1OC(C)=O)C32 (stereo not shown) [Compound 21] here?
A: 121%

System: BT-549
Experiment: NCI60 one-dose screen (10 μM), Breast Cancer
Type: cell-based
Details: Homo sapiens, BT-549, read-out: Growth percent rate

Q: With CCC12C=CCN3CCC4(c5cc(NC(=O)CN6CCN(Cc7ccc(C(F)(F)F)cc7)CC6)c(OC)cc5N(C)C4C(O)(C(=O)OC)C1OC(C)=O)C32 (stereo not shown) [Compound 18] as the compound, how does the activity at 10 µM read?
A: 47%

Same assay, conditions: Homo sapiens; 10 μM; BT-549, Breast Cancer; read-out: Growth percent rate

Q: With CCC12C=CCN3CCC4(c5cc(NC(=O)CN6CCN(C(=O)c7ccco7)CC6)c(OC)cc5N(C)C4C(O)(C(=O)OC)C1OC(C)=O)C32 (stereo not shown) [Compound 21] as the compound, how does the activity at 10 µM read?
A: 117%

System: HCC-2998
Experiment: NCI60 one-dose screen (10 μM), Colon Cancer
Type: cell-based
Details: Homo sapiens, HCC 2998, read-out: Growth percent rate

Q: Which activity at 10 µM does the source give for CCC12C=CCN3CCC4(c5cc(NC(=O)CN6CCN(Cc7ccc(C(F)(F)F)cc7)CC6)c(OC)cc5N(C)C4C(O)(C(=O)OC)C1OC(C)=O)C32 (stereo not shown) [Compound 18] here?
A: 79.1%

Same assay, conditions: Homo sapiens; 10 μM; HCC-2998, Colon Cancer; read-out: Growth percent rate

Q: For CCC12C=CCN3CCC4(c5cc(NC(=O)CN6CCN(C(=O)c7ccco7)CC6)c(OC)cc5N(C)C4C(O)(C(=O)OC)C1OC(C)=O)C32 (stereo not shown) [Compound 21], which activity at 10 µM is on record?
A: 126%

System: HT29
Experiment: NCI60 one-dose screen (10 μM), Colon Cancer
Type: cell-based
Details: Homo sapiens, HT-29, read-out: Growth percent rate

Q: How did the activity at 10 µM turn out when CCC12C=CCN3CCC4(c5cc(NC(=O)CN6CCN(Cc7ccc(C(F)(F)F)cc7)CC6)c(OC)cc5N(C)C4C(O)(C(=O)OC)C1OC(C)=O)C32 (stereo not shown) [Compound 18] was run?
A: 39.3%

Same assay, conditions: Homo sapiens, HT-29; 10 μM; HT29, Colon Cancer; read-out: Growth percent rate

Q: With CCC12C=CCN3CCC4(c5cc(NC(=O)CN6CCN(C(=O)c7ccco7)CC6)c(OC)cc5N(C)C4C(O)(C(=O)OC)C1OC(C)=O)C32 (stereo not shown) [Compound 21] as the compound, how does the activity at 10 µM read?
A: 109%

System: UO-31
Experiment: NCI60 one-dose screen (10 μM), Renal Cancer
Type: cell-based
Details: Homo sapiens, UO-31, read-out: Growth percent rate

Q: CCC12C=CCN3CCC4(c5cc(NC(=O)CN6CCN(Cc7ccc(C(F)(F)F)cc7)CC6)c(OC)cc5N(C)C4C(O)(C(=O)OC)C1OC(C)=O)C32 (stereo not shown) [Compound 18] was tested. Which activity at 10 µM did it give?
A: 50%

Same assay, conditions: Homo sapiens; 10 μM; UO-31, Renal Cancer; read-out: Growth percent rate

Q: For CCC12C=CCN3CCC4(c5cc(NC(=O)CN6CCN(C(=O)c7ccco7)CC6)c(OC)cc5N(C)C4C(O)(C(=O)OC)C1OC(C)=O)C32 (stereo not shown) [Compound 21], which activity at 10 µM is on record?
A: 89.3%

System: NCI/ADR-RES
Experiment: NCI60 one-dose screen (10 μM), Ovarian Cancer
Type: cell-based
Details: Homo sapiens, 10 μM, Ovarian Cancer, read-out: Growth percent rate

Q: For CCC12C=CCN3CCC4(c5cc(NC(=O)CN6CCN(C(=O)c7ccco7)CC6)c(OC)cc5N(C)C4C(O)(C(=O)OC)C1OC(C)=O)C32 (stereo not shown) [Compound 21], which activity at 10 µM is on record?
A: 112%

Same assay, conditions: Homo sapiens, read-out: Growth percent rate

Q: For CCC12C=CCN3CCC4(c5cc(NC(=O)CN6CCN(Cc7ccc(C(F)(F)F)cc7)CC6)c(OC)cc5N(C)C4C(O)(C(=O)OC)C1OC(C)=O)C32 (stereo not shown) [Compound 18], which activity at 10 µM is on record?
A: 61.9%

System: T-47D
Experiment: NCI60 one-dose screen (10 μM), Breast Cancer
Type: cell-based
Details: Homo sapiens, T47D, read-out: Growth percent rate

Q: CCC12C=CCN3CCC4(c5cc(NC(=O)CN6CCN(Cc7ccc(C(F)(F)F)cc7)CC6)c(OC)cc5N(C)C4C(O)(C(=O)OC)C1OC(C)=O)C32 (stereo not shown) [Compound 18] was tested. Which activity at 10 µM did it give?
A: 51.4%

Same assay, conditions: Homo sapiens, T47D; 10 μM; T-47D, Breast Cancer; read-out: Growth percent rate

Q: With CCC12C=CCN3CCC4(c5cc(NC(=O)CN6CCN(C(=O)c7ccco7)CC6)c(OC)cc5N(C)C4C(O)(C(=O)OC)C1OC(C)=O)C32 (stereo not shown) [Compound 21] as the compound, how does the activity at 10 µM read?
A: 111%

System: UACC-62
Experiment: NCI60 one-dose screen (10 μM), Melanoma
Type: cell-based
Details: Homo sapiens, UACC-62, read-out: Growth percent rate

Q: CCC12C=CCN3CCC4(c5cc(NC(=O)CN6CCN(Cc7ccc(C(F)(F)F)cc7)CC6)c(OC)cc5N(C)C4C(O)(C(=O)OC)C1OC(C)=O)C32 (stereo not shown) [Compound 18] was tested. Which activity at 10 µM did it give?
A: 74.4%

Same assay, conditions: Homo sapiens; 10 μM; UACC-62, Melanoma; read-out: Growth percent rate

Q: With CCC12C=CCN3CCC4(c5cc(NC(=O)CN6CCN(C(=O)c7ccco7)CC6)c(OC)cc5N(C)C4C(O)(C(=O)OC)C1OC(C)=O)C32 (stereo not shown) [Compound 21] as the compound, how does the activity at 10 µM read?
A: 103%

System: SNB-19
Experiment: NCI60 one-dose screen (10 μM), CNS Cancer
Type: cell-based
Details: Homo sapiens, SNB-19, read-out: Growth percent rate

Q: For CCC12C=CCN3CCC4(c5cc(NC(=O)CN6CCN(Cc7ccc(C(F)(F)F)cc7)CC6)c(OC)cc5N(C)C4C(O)(C(=O)OC)C1OC(C)=O)C32 (stereo not shown) [Compound 18], which activity at 10 µM is on record?
A: 47.4%

Same assay, conditions: Homo sapiens; 10 μM; SNB-19, CNS Cancer; read-out: Growth percent rate

Q: Which activity at 10 µM does the source give for CCC12C=CCN3CCC4(c5cc(NC(=O)CN6CCN(C(=O)c7ccco7)CC6)c(OC)cc5N(C)C4C(O)(C(=O)OC)C1OC(C)=O)C32 (stereo not shown) [Compound 21] here?
A: 96.2%

System: DU-145
Experiment: NCI60 one-dose screen (10 μM), Prostate Cancer
Type: cell-based
Details: Homo sapiens, DU-145, read-out: Growth percent rate

Q: With CCC12C=CCN3CCC4(c5cc(NC(=O)CN6CCN(Cc7ccc(C(F)(F)F)cc7)CC6)c(OC)cc5N(C)C4C(O)(C(=O)OC)C1OC(C)=O)C32 (stereo not shown) [Compound 18] as the compound, how does the activity at 10 µM read?
A: 71.6%

Same assay, conditions: Homo sapiens; 10 μM; DU-145, Prostate Cancer; read-out: Growth percent rate

Q: For CCC12C=CCN3CCC4(c5cc(NC(=O)CN6CCN(C(=O)c7ccco7)CC6)c(OC)cc5N(C)C4C(O)(C(=O)OC)C1OC(C)=O)C32 (stereo not shown) [Compound 21], which activity at 10 µM is on record?
A: 110%
